Literature values in patent US7473787B2, “Bicyclic [3.1.0] derivatives as glycine transporter inhibitors” (Pfizer Inc, priority 2003, dated 2009).

System: NMDA receptor
Settings: effect blocked by a specific NMDA-site antagonist and a glycine-site antagonist

CN(CCC(Oc1ccc(-c2ccccc2)cc1)c1ccc(F)cc1)CC(=O)O (stereo not shown) [NFPS]
effect on postsynaptic current driven by the NMDA receptor: increased the postsynaptic current
